Results on 89 compounds are retold here after a melting point compilation (Tetko et al.; mined from patent text by program, amines drawn as free bases though some values may be those of a salt).

For `COc1ccccc1NC(=O)Nc1nc(Nc2ccc3ccccc3c2)nc(N(CCC(=O)O)Cc2ccc(Cl)c(Cl)c2)n1`, the melting point lay within 115 to 120 °C.

The compound `CS(=O)(=O)NC(=O)Cc1ccc2c(c1)Nc1nccnc1S2` came in with a melting point of 236 to 238 °C.

In turn, `O=C(O)CC(Sc1ccc(Cl)cc1)c1ccccc1` (centres undefined) displayed a melting point of 90 to 92 °C.

With `COC1(c2cc(F)cc(OCc3ccc(N(C)S(C)(=O)=O)c(Cl)c3)c2)CCOCC1`, the melting point is 126 to 128 °C.

Compound `O=c1nc(-c2ccnc(-c3ccccc3)c2)sc2ccccc12` showed a melting point of 163 °C.

`OC1(C#Cc2ccccc2Cc2ccccc2)CN2CCC1CC2` (centres undefined): the melting point was in the range of 156 to 157 °C.

Turning to `CCCCc1nc(SC)c(C(=O)O)n1Cc1ccc(-c2ccccc2S(=O)(=O)NC(=O)C(c2ccccc2)c2ccccc2)cc1`, the melting point was determined as 205 °C.

Consider `COc1ccc(-c2csc(Nc3ccc(C)cn3)n2)cc1`, for which the melting point fell in the range of 246 to 248 °C.

For `Cc1ccnc2c1N=C(Cl)c1cccnc1N2C1CC1`, the melting point lay within 196 to 198 °C.

Regarding `COc1cc(CCCC2SC(=O)NC2=O)ccc1OCc1coc(-c2ccccc2)n1` (centres undefined), the melting point fell in the range of 131 to 132 °C.

Turning to `Fc1cc(F)c(N=C2NCCN2)c(F)c1`, the melting point was in the range of 148 to 150 °C.

With `CCCC(OCCc1ccc(-c2ccc(Cl)cc2)cc1)C(=O)O` (centres undefined), the melting point was 89 to 90 °C.

The compound `CCOc1cc2oc(=O)c3c(c2cc1OCC)CCN(CC(C)=O)C3` yielded a melting point of 146 to 148 °C.

The compound `CC(C)[C@H](NC(=O)OCc1ccccc1)C(=O)NCCCNC(=O)[C@@H](NC(=O)OCc1ccccc1)C(C)C` returned a melting point of 211 to 212 °C.

Compound `COc1cccc2c3c(c(=O)[nH]c12)CCN3c1ccccc1C` had a melting point of 166 to 168 °C.

In turn, `COC(=O)CCCc1cc2cc(Cl)ccc2n1S(=O)(=O)c1ccc(N2CCOCC2)nc1` returned a melting point of 130 to 132 °C.

Take `Cc1cc2cc(CN3CCCC3)cnc2cc1NC(=O)c1ccc(-c2ccccc2)cc1F`: the melting point was 180 to 183 °C.

As to `CN1CCN(c2cccc3c2CC[C@@H](NC(=O)c2ccc(N4CCOCC4)cc2)C3)CC1`, the melting point fell in the range of 127 to 128 °C.

As to `NCC1Cc2cc(C(F)(F)F)cc(-c3ccc(Cl)cc3)c2O1` (centres undefined), the melting point was above 250 °C.

The compound `CCOC(=O)Cc1cc(Cl)cc(C(=O)c2ccccc2)c1N` displayed a melting point of 80 to 82 °C.

`Nc1nnc(-c2ccccc2Cl)c(-c2ccccc2Cl)n1` registered a melting point of 240 to 242 °C.

With `O=C(Nc1cscn1)Nc1cccc2c1C1CCCCN1C2=O` (centres undefined), the melting point lay within 178 to 180 °C.

Consider `COc1ccc2cc(CC(=O)O)ccc2c1`, for which the melting point was in the range of 173 to 174 °C.

With `CCOC(=O)CCN(C)CC(C(=O)OC)c1cc(OC)c(CC)c(OC)c1` (centres undefined), the melting point lay in the range of 74 to 75 °C.

Regarding `CC(=O)c1ccc(Sc2cccc(Br)c2)cc1`, the melting point is 54 to 57 °C.

With `OCc1cccc2oc3c(c12)CCCC3`, the melting point was 43 to 45 °C.

Compound `C#CC(C)NCC(O)COc1ccccc1C=Cc1nnc(C)s1` (centres undefined) displayed a melting point of 143 to 145 °C.

Take `Fc1ccc(-c2nc[nH]c2-c2cccs2)cc1`: the melting point is 197 to 198 °C.

Compound `CC(C)CN1C(=O)C(CC(=O)O)OC(C)(c2ccccc2Cl)c2cc(Cl)ccc21` (centres undefined) showed a melting point of 153 to 154 °C.

Consider `Cc1cc(Oc2cccc(C(F)(F)F)c2)nn1C(=O)Nc1ccccc1`, for which the melting point was 53 to 54 °C.

Compound `CCOC(=O)C1=CNC2=C(C(=O)OCC)CCC(C)N2C1=O` (centres undefined) came in with a melting point of 138 to 140 °C.

As for `C#Cc1ccc2c(c1-c1cn(C3CC(O)C(COC(c4ccccc4)(c4ccc(OC)cc4)c4ccc(OC)cc4)O3)c(=O)[nH]c1=O)Cc1ccccc1-2` (centres undefined), the melting point was in the range of 160 to 161 °C.

`NS(=O)(=O)c1cccc(C2(O)CCC2)c1` had a melting point of 155 to 157 °C.

Turning to `O=C1Nc2cc3c(cc2O[C@H]1CCCO)CCCC3`, the melting point was 139 to 140 °C.

As to `COc1ccc2c(c1)CNN=C2Cc1c(Cl)cncc1Cl`, the melting point was in the range of 181 to 183 °C.

`Cn1nc(-c2ccc3c(c2)OCO3)c(-c2ccncc2)c1NC(=O)Cc1ccccc1` registered a melting point of 128 to 132 °C.

Take `COc1ccc(C(=O)N2CCc3cc(OCc4ccccc4)ccc3C2)cc1OC`: the melting point lay in the range of 126 to 127 °C.

For `CCN(CC)C(=O)c1nc(C=Cc2ccc(OC)cc2)no1`, the melting point lay within 69 to 70 °C.

The compound `CC[C@]12CC[C@@H]3c4ccc(O)cc4CC[C@H]3[C@@H]1C=CC2=O` registered a melting point of 230 °C.

In the case of `CCOC(=O)C=Cc1cc2c(cn1)[nH]c1ccccc12`, the melting point is 132 to 134 °C.

Consider `O=C(c1ccc(F)cc1)C1CCN(CC2CSc3ccc(F)cc3C2)CC1` (centres undefined), for which the melting point lay in the range of 98 to 102 °C.

Compound `Cc1cccn2cc(CCl)nc12` displayed a melting point of 115 to 117 °C.

`CCN(CC)C(=O)COc1ccc(C(=O)CCl)cc1` showed a melting point of 89 to 91 °C.

In the case of `CC1(CCC(N)=O)C(=O)CCC1=O`, the melting point fell in the range of 159 to 162 °C.

In the case of `COc1cccc(NC(=O)NC2CC(c3ccccc3F)c3ccccc3N(CC(=O)NC(C)(C)C)C2=O)c1` (centres undefined), the melting point lay in the range of 265 to 280 °C.

Take `Cc1cc(-c2ccc(Cl)cc2)nc2c(I)cnn12`: the melting point was in the range of 147 to 148 °C.

For the compound `C#CCOc1cnc(C2=NC(C)(C(C)C)C(=O)N2)c(C(=O)OC)c1` (centres undefined), the melting point was 83 to 84 °C.

For `CNC(=O)[C@@H](NC(=O)[C@@H](CC(=O)OCc1ccccc1)n1ccc(-c2ccc(C#N)cc2)c1)C(C)(C)C`, the melting point fell in the range of 102 to 104 °C.

On to `NN=c1cc(-c2c[nH]nc2-c2cccc(Cl)c2)cc[nH]1`, for which the melting point was 163 to 164 °C.

`CC(C)NCC(O)(Cn1cncn1)c1ccc(Cl)cc1Cl` (centres undefined): the melting point was 132 to 133 °C.

In turn, `CSC(=S)NN=Cc1c[nH]c(-c2ccccc2)n1` came in with a melting point of 166 to 170 °C.

Regarding `CN(C(=O)CCN)c1nnc(-c2cccnc2)s1`, the melting point lay within 110 to 112 °C.

Consider `COC(=O)N1CCCc2onc(OC)c2C1`, for which the melting point lay in the range of 68 to 70 °C.

In turn, `COc1cccc(N(CCN2CCC(C(=O)c3ccc(F)cc3)CC2)C(=O)c2ccc(NC(N)=O)cc2)c1` returned a melting point of 123 to 128 °C.

`COc1cc(C(=O)c2c[nH]c(-c3c[nH]c4ccccc34)n2)cc(OC)c1OC` registered a melting point of 208 to 210 °C.

Compound `Cc1ncc2cc(-c3cc(C(F)(F)F)cc(C(F)(F)F)c3)ccc2n1` gave a melting point of 208 to 210 °C.

On to `O=C(O)c1cn(CC2CC2)c2ccccc12`, for which the melting point was 157 °C.

Compound `O=C(Oc1ccccc1)c1n[nH]c2c(=O)[nH]c3cc(Cl)ccc3c(=O)c12` displayed a melting point of 265 °C.

`CC(C)(Oc1ccc(OCc2ccc3nn(-c4ccc(C(F)(F)F)cc4)cc3c2)cc1)C(=O)O` showed a melting point of 203 to 205 °C.

Take `CCNc1nc2c(N)nc3ccccc3c2n1CC(C)C`: the melting point lay in the range of 188 to 190 °C.

As to `OC(CCN1CCCC1)c1ccc(C2CCCCC2)c(Cl)c1` (centres undefined), the melting point came to 90 °C.

`CCCCCCCCCCCCCCCCCNC(=O)OCCOCCOC(=O)NCc1ccccn1` returned a melting point of 91 to 92 °C.

Consider `CN1C(=O)[C@H](NC(=O)CCCc2ccccc2)N=C(c2ccccc2)c2ccccc21`, for which the melting point lay in the range of 65 to 74 °C.

`Nc1nc(NCCN2CCN(C(c3ccccc3)c3ccccc3)CC2)nc(-c2cc(Cl)ccc2Cl)n1` had a melting point of 192 to 193 °C.

As for `O=C(C=Cc1ccccc1)c1cccc(NC(=O)c2ccn3c2CSC3c2cccnc2)c1` (centres undefined), the melting point is 190 °C.

The compound `CCc1noc(-c2ncc3[nH]c4ccc(C5CC=CCC5)cc4c3c2C)n1` (centres undefined) returned a melting point of 247 to 248 °C.

In turn, `CCCc1cn(C)cc(-c2cccc(C(F)(F)F)c2)c1=S` came in with a melting point of 145 to 148 °C.

Consider `O=C(CN1CCSCC1)N1CCC(C2c3ccc(Cl)c(Br)c3CCc3cc(Br)cnc32)CC1` (centres undefined), for which the melting point lay within 172 to 174 °C.

Consider `COc1cc(S(C)(=O)=O)ccc1-c1ccc(C#N)c(=O)[nH]1`, for which the melting point was 280 to 282 °C.

In the case of `O=C(NC(=O)C(Br)CBr)Nc1ccc(Cl)cc1` (centres undefined), the melting point lay in the range of 162 to 163 °C.

Turning to `O=C(CCCCC(=O)Oc1ccc(C(=O)OCc2ccccc2)cc1)Oc1ccc(C(=O)OCc2ccccc2)cc1`, the melting point lay within 93 to 93.5 °C.

Compound `CC(=O)NC[C@H]1CN(c2ccc(N3CCC4(CC3)CO4)c(F)c2)C(=O)O1` registered a melting point of 152 to 154 °C.

In turn, `CON=C(C)CCN1C(=O)c2ccccc2C1=O` showed a melting point of 55 to 64 °C.

Regarding `CN1C(C(=O)Nc2cccc(Br)c2)=C(O)c2ccc3ccccc3c2S1(=O)=O`, the melting point lay in the range of 268 to 269 °C.

In the case of `COc1ccc(/C=C/c2nc3ccccc3c(=O)o2)cc1OC(C)=O`, the melting point was 187 to 190 °C.

Turning to `CC(C)N(CCC(C(N)=O)(c1ccc(O)cc1)c1ccccn1)C(C)C` (centres undefined), the melting point lay within 148 to 151 °C.

As to `CCn1cc(C2(c3cccc(-c4cncc(Cl)c4)c3)N=C(N)N(C)C2=O)cn1` (centres undefined), the melting point lay within 205 to 210 °C.

Compound `CCOC(=O)c1cn(C2CCCCC2)c2cc(I)ccc2c1=O` gave a melting point of 169 to 171 °C.

In turn, `SCc1cn(C(c2ccccc2)(c2ccccc2)c2ccccc2)nn1` yielded a melting point of 140 to 141 °C.

`Cc1cc(-c2ccc(C(F)(F)F)cc2)cc(-c2cccc(-c3cccc(N)c3)n2)n1` gave a melting point of 167 °C.

The compound `NC(=O)C1CNCCN1CCCC(c1ccc(F)cc1)c1ccc(F)cc1` (centres undefined) displayed a melting point of 114 °C.

For `CCC(=O)c1cc2c(Oc3ccc(Cl)cc3)cncc2s1`, the melting point lay in the range of 101 to 102 °C.

On to `Oc1ccc2c(c1)CCN(Cc1ccc3c(c1)OCO3)C2`, for which the melting point was 169 to 172 °C.

`COC(=O)c1nc(-c2ccc(Cl)cc2F)nc(N)c1Br` gave a melting point of 186 to 188 °C.

In the case of `Cc1cccnc1-n1c(C)nc2ccccc2c1=O`, the melting point is 135 to 137 °C.

For `c1cc2c(N3CCNCC3)csc2cn1`, the melting point was in the range of 126 to 128 °C.

The compound `CC(=O)Oc1cc(-c2nc3ccccc3[nH]c2=O)cc([N+](=O)[O-])c1OC(C)=O` came in with a melting point of 241 to 243 °C.

In turn, `COc1ccc(Cl)cc1C(=O)NCCc1ccc(-c2ccco2)c(S(N)(=O)=O)c1` displayed a melting point of 195 °C.

`COc1ccc(-c2ccc(-c3ccc(OC)cc3)c(-c3ccc(O)cc3)n2)cc1` displayed a melting point of 204 to 205 °C.
